From the NIST ThermoML archive (doi:10.1021/je060336+)
± gives the expanded uncertainty stated by the source.

Settings: Liquid

| vapor or sublimation pressure (313.15 K) [kPa] | vapor or sublimation pressure (323.15 K) [kPa] | vapor or sublimation pressure (333.15 K) [kPa] | vapor or sublimation pressure (343.15 K) [kPa] | vapor or sublimation pressure (353.15 K) [kPa] | vapor or sublimation pressure (363.15 K) [kPa] | Compound |
| --- | --- | --- | --- | --- | --- | --- |
| 377 ± 3 | 495 ± 4 | 639 ± 5 | 810 ± 6 | 1012 ± 8 | 1250 ± 10 | CCCC [butane] |
| 1831 ± 14 | 2302 ± 18 | 2874 ± 22 | 3553 ± 28 | – | – | CC(F)(F)F [1,1,1-trifluoroethane] |
